According to US8664237B2 (The Johns Hopkins University, priority 2008, dated 2014):

Tests used:
IB3-1 cells [1] = assay: Fura-2 microscope calcium measurement in IB3-1 cells; format: cell-based, human; conditions: for effect of preincubation on the spiperone-induced Ca2+ increase: inhibitor given before spiperone; for spiperone Ca2+ response after prior addition of the analog: analog added prior to spiperone; for increase of intracellular Ca2+ / Ca2+ release: spiperone analogs, solution not stated
From the text: . A microscope-based fluorescence Ca^2+ measurement system was utilized in this study. First IB3-1 cells grown on a coverglass were bathed in the ECaT Ringer's which was used for the screen. […] In order to ascertain the origin of this sustained increase the experiment was repeated except with Ca^2+-free ECaT Ringer's solution, (See FIG. 8).
Using normal Ringers, a study was undertaken to determine whether the source of the increase in cytoplasmic Ca^2+ was indeed the endoplasmic reticulum (ER). As part of the normal Ca^2+ transit system across the ER, the Ca^2+-ATPase pumps Ca^2+ from the cytosol to the ER uphill against the concentration gradient. Other channels continue to cycle Ca^2+ from ER back to cytosol. Thapsigargin blocks the Ca^2+-ATPase, inhibiting the uphill uptake. […]
Phospholipase C (PLC) is an intracellular enzyme that participates in calcium signaling pathways. […]. There are two major molecules that activate PLC pathways to release Ca^2+ from the ER. One is the G-protein coupled receptors. The second is the protein tyrosine kinase […]. […]. […] (FIG. 12G is the summary data of genistein treatment.) Lavendustin A is another protein tyrosine kinase inhibitor. […].
(§1) Cells were seeded on the collagen-coated cover glass for 48 h. Cell Ca^2+ was measured with a dual excitation wavelength microscope system. Fura-2 fluorescence was excited at 340 nm and 380 nm with xenon light. Fluorescence was measured at 510 nm emission wavelength. Data was processed and analyzed using IPLab 4.0 software. Fluorescence data of each experiment were normalized to the individual basal fluorescence value ΔF/F0=(F−F0)/F0 to bring all the response curves to the same pretreatment starting point.

Calu-3 cells [2] = assay: Short-circuit current measurement (Cl- secretion), Calu-3 monolayers; format: cell-based, human; conditions: for effect of channel blocker on spiperone-induced sustained Cl- release / effect of channel blocker on spiperone-induced transient Cl-: amiloride present; for Cl- current (short circuit current): normal Ringer's, Na+ absorption blocked with amiloride
Procedure: (§2) An experiment was carried out to establish that the spiperone-induced increase of Ca^2+ would produce an increase in Cl^− transport relevant to CF, and that it would do so in CF relevant epithelial cells. Calu-3 and CFBE41o-cell monolayers were cultured on permeable filter support and “short circuit current” measurements were performed to evaluate the current produced by Cl^− in these cells.
(§3) Na^+ is a positively charged ion and its absorption would interfere with the short circuit measurement for Cl^− secretion. Therefore, in normal Ringer's solution, Na^+ absorption across the cell membrane was blocked with amiloride. Cell monolayers were then exposed to the two relevant compounds: niflumic acid (NFA), which is a non-selective CaCCs blocker or to CFTRinh-172, which is a specific CFTR blocker.
(§4) Calu-3 and CFBE41o-cells were cultured on Snapwell inserts until they formed a tight monolayer as monitored by measuring the transepithelial resistance. The bottom of the monolayer was taken out, mounted on the Ussing chamber and buffered by the testing solutions. The short-circuit current was measured by a VCC MC6 multichannel voltage/current clamp (Physiologic Instruments, San Diego, Calif.). Data were recorded and analyzed by Acquire and Analyze software.

5-HT receptor = conditions: canine tracheal epithelia, another study; cited from earlier work
5-HT2 receptor = 5-HT2 receptor (Homo sapiens, UniProt P28223); conditions: antagonists; cited from earlier work
Chain of 5-HT2 receptor (P28223 whole entry): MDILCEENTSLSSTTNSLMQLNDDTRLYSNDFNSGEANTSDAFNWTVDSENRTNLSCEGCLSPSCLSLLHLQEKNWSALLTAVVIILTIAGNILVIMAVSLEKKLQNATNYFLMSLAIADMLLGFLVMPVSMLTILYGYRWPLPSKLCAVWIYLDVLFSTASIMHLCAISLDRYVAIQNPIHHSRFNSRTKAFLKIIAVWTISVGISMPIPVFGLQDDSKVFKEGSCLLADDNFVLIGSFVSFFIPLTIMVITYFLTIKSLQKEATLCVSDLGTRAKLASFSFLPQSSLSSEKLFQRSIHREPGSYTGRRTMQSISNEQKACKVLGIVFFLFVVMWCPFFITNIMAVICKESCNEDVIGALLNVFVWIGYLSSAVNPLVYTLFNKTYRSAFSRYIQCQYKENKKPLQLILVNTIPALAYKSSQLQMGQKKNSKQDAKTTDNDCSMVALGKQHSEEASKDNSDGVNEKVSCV

dopamine D2 receptor = dopamine D2 receptor (Homo sapiens, UniProt P14416); conditions: cited from earlier work
Chain of dopamine D2 receptor (P14416 whole entry, species assumed): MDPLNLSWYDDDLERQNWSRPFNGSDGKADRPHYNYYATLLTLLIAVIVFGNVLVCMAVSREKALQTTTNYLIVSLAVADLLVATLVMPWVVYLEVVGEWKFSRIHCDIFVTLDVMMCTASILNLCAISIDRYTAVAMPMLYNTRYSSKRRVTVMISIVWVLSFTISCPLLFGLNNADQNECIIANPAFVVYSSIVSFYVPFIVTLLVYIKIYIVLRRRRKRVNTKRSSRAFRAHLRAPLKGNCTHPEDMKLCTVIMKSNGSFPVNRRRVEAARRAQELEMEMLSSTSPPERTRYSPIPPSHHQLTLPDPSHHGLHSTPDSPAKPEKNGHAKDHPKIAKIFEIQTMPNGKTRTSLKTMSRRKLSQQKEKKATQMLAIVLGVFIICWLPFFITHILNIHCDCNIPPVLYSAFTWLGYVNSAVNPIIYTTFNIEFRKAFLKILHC

CFBE41o- cells [3] = assay: Short-circuit current measurement (Cl- secretion), CFBE41o- monolayers; format: cell-based, human; conditions: for Cl- secretion (short circuit current): normal Ringer's, amiloride
Procedure: as §2, §3, §4

IB3-1 cells [4] = assay: Compound screening for calcium enhancers (Fura-2 fluorescence plate reader)
From the text: Thus for the ECaT Ringers, we eliminated Na^+ from the solution and replaced it completely by N-methyl-D-glucamine (NMDG) to maintain the solution osmolality to favor Ca^2+ for entry through the P2X receptor. We were searching for compounds that activate the P2X receptor channel or other Ca^2+ entry channels, as well as compounds that bind to membrane or cellular proteins which are involved in intracellular Ca^2+ regulation.
Compounds were selected as potential hits if their change of fluorescence ratio fell within 3 SD of those obtained for zinc (ratio), and larger than that recorded for DMSO (ratio) +3SD. The average Z factor of all 25 plates is 0.6 for the 15 min detection. Hits were solely based on the change in the fluorescence ratio. Any compound that was highly auto-fluorescent was not considered further.
We further evaluated 37 hits manually using the Fluorescence Plate Reader system. […] Following this initial vetting process, the half-maximal effective concentration (EC50) was determined of each of the remaining 19 molecules. […] Compound Library: Library MSSP (Microsource Discovery Inc) was our source for compounds for the primary screening. The compounds were known bioactive compounds and natural products and their derivatives. The library contained 2,000 compounds on twenty-five 96-well plates, with 80 compounds tested per plate. In the master plates, each compound was suspended in DMSO at a concentration of 10 mM. A set of 96-well plates of the library in a concentration of 2 mM in DMSO was made prior to the screening.
Screening Procedure: The screening was performed by the Johns Hopkins University High Throughput Biology Center Chemcore. […] The fluorescence ratio was measured in ECaT Ringer's solution by a Tecan Safire Fluorescence Plate Reader. […] The fluorescence ratio was measured again immediately after adding the compounds. The final fluorescence detection was done 15 min after the second detection in order to find compounds which stimulate the sustained Ca^2+ increase.

[5] = 24 weeks of treatment, phase III trial, inhaled; cited from earlier work
Calu-3 cells [6] = assay: Fura-2 microscope calcium measurement in Calu-3 cells; format: cell-based, human; conditions: Calu-3 non-CF; Ca2+-free Ringers
Procedure: as §1

[7] = system: nasal epithelia of wild-type (C57B1/6) mice; assay: Mouse nasal potential difference, wild-type C57B1/6 mice; conditions: after elimination of mucosal Cl-
From the text: Animals: The studies conducted were approved by the Johns Hopkins University Animal Care and Use Committee. […] Nasal Potential Difference (NPD): All mice were anesthetized with an IP injection of a ketamine and xylazine mixture (100 mcg/10 mcg per gram of body weight). […] Briefly, a high impedance voltmeter (World Precision Instruments, Sarasota, Fla.) was connected by silver-chloride pellet electrodes to an exploring nasal bridge and a reference subcutaneous bridge. The nasal bridge, a single polyethylene tube (PE10, 0.28 mm ID, Clay-Adams, B D, Sparks, Md.) was pulled to one-half its original diameter and cut at a 45 degree angle. The tubing was marked and inserted 5 mm from the tip of the nare. A paper tape flag indicated position and orientation of the tip. The subcutaneous bridge was a 25 GA Butterfly® (Abbott, Chicago, Ill.) needle containing Ringer's solution inserted subcutaneously in the right abdominal wall. Each solution was warmed to 37° C. and perfused to the nare for at least 3 minutes at 5 micro liters per minute using a perfusion pump. Following the procedure, the oral cavity was gently suctioned of perfusate and the mice were recovered to their cages. Voltmeter data (mV) was recorded by a PowerLab A/D converter connected to a PC running Chart software at 20 samples per second (AD Instruments, Colorado Springs, Colo.). […]

[8] = system: nasal epithelium of CFKO mice; assay: Mouse nasal potential difference, CF (double transgenic CFKO) mice
From the text: In order to allow for later hyperpolarization from chloride secretion, their nasal epithelia were perfused with baseline Ringers with amiloride added to block the epithelial Na^+ channel. For the next perfusion, the Cl^− was removed by substituting Na^+ gluconate in the baseline Ringer's solution (FIG. 8), then removed Cl^− from the mucosa by perfusing the nare with that Ringer's.
Nasal Potential Difference (NPD): All mice were anesthetized with an IP injection of a ketamine and xylazine mixture (100 mcg/10 mcg per gram of body weight). […] Briefly, a high impedance voltmeter (World Precision Instruments, Sarasota, Fla.) was connected by silver-chloride pellet electrodes to an exploring nasal bridge and a reference subcutaneous bridge. The nasal bridge, a single polyethylene tube (PE10, 0.28 mm ID, Clay-Adams, B D, Sparks, Md.) was pulled to one-half its original diameter and cut at a 45 degree angle. The tubing was marked and inserted 5 mm from the tip of the nare. A paper tape flag indicated position and orientation of the tip. The subcutaneous bridge was a 25 GA Butterfly® (Abbott, Chicago, Ill.) needle containing Ringer's solution inserted subcutaneously in the right abdominal wall. Each solution was warmed to 37° C. and perfused to the nare for at least 3 minutes at 5 micro liters per minute using a perfusion pump. Following the procedure, the oral cavity was gently suctioned of perfusate and the mice were recovered to their cages. Voltmeter data (mV) was recorded by a PowerLab A/D converter connected to a PC running Chart software at 20 samples per second (AD Instruments, Colorado Springs, Colo.). A minimum of 400 data points (˜20 seconds) were used to calculate the mean voltage values.

CFBE41o- cells [9] = assay: Fura-2 microscope calcium measurement in CFBE41o- cells; format: cell-based, human; conditions: CFBE41o- CF; Ca2+-free Ringers
Procedure: as §1

NHBE = assay: Fura-2 microscope calcium measurement in NHBE primary cells; format: cell-based, human; conditions: NHBE primary culture; Ca2+-free Ringers
Procedure: as §1

COc1ccc2c(c1)CC[C@@H]1[C@@H]2CC[C@]2(C)C(NCCCCCCN3C(=O)CCC3=O)CC[C@@H]12 (stereo partly shown) [U73433]
effect of preincubation on the spiperone-induced Ca2+ increase (IB3-1 cells [1]): did not

O=C(O)c1ccc(/C=C2\SC(=S)N(c3cccc(C(F)(F)F)c3)C2=O)cc1 [CFTRinh-172]
effect of channel blocker on spiperone-induced sustained Cl- release (Calu-3 cells [2]): totally blocked | effect of channel blocker on spiperone-induced transient Cl- (Calu-3 cells [2]): reduced

O=C(CCCN1CCC(O)(c2ccc(Cl)cc2)CC1)c1ccc(F)cc1 [haloperidol]
spiperone Ca2+ response after prior addition of the analog (IB3-1 cells [1]; Ca2+-free normal Ringer's): spiperone was still able to stimulate a transient increase in Ca^2+ | increase of intracellular Ca2+ / Ca2+ release (IB3-1 cells [1]): did not release Ca^2+ | effect on spiperone-stimulated transepithelial Cl- currents (Calu-3 cells [2]; analog given before spiperone): did not prevent spiperone from stimulating transepithelial Cl^− currents | Cl- current (short circuit current) (Calu-3 cells [2]): did not stimulate the Cl^− current

O=C(c1ccc(F)cc1)C1CCN(CCn2c(=O)[nH]c3ccccc3c2=O)CC1 [ketanserin]
effect on 5-HT effects (inhibited Na+ absorption, stimulated Cl- secretion) (5-HT receptor): blocked those effects | spiperone Ca2+ response after prior addition of the analog (IB3-1 cells [1]; Ca2+-free normal Ringer's): spiperone was still able to stimulate a transient increase in Ca^2+ | increase of intracellular Ca2+ / Ca2+ release (IB3-1 cells [1]): did not increase intracellular Ca^2+ | affinity for the 5-HT2 receptor (5-HT2 receptor): high affinity | antagonism of the dopamine receptor (dopamine D2 receptor): very weakly antagonistic

Cc1ccc(C(=O)Nc2ccc(S(=O)(=O)O)c3cc(S(=O)(=O)O)cc(S(=O)(=O)O)c23)cc1NC(=O)c1cccc(NC(=O)Nc2cccc(C(=O)Nc3cc(C(=O)Nc4ccc(S(=O)(=O)O)c5cc(S(=O)(=O)O)cc(S(=O)(=O)O)c45)ccc3C)c2)c1 [Suramin, suramin]
effect of preincubation on the spiperone-induced Ca2+ increase (IB3-1 cells [1]): did not reduce

O=C(O)c1cc(N(Cc2ccccc2O)Cc2cc(O)ccc2O)ccc1O [lavendustin A]
effect on the increase in Ca2+ induced by spiperone (IB3-1 cells [1]; 10 μM, data not shown): significantly diminished

C/C=C(/C)C(=O)O[C@H]1C(C)=C2[C@H]([C@@H]1OC(=O)CCCCCCC)[C@@](C)(OC(C)=O)C[C@H](OC(=O)CCC)[C@@]1(O)[C@H]2OC(=O)[C@@]1(C)O [thapsigargin]
change in cytoplasmic Ca2+ (IB3-1 cells [1]; normal Ringer's): net increase in Ca^2+ in the cytosol | Cl- secretion (short circuit current) (CFBE41o- cells [3]): transient increase in Cl^− secretion

COc1ccc2c(c1)CC[C@@H]1[C@@H]2CC[C@]2(C)[C@@H](NCCCCCCN3C(=O)C=CC3=O)CC[C@@H]12 [U73122]
effect of preincubation on the spiperone-induced Ca2+ increase (IB3-1 cells [1]): diminished

[Zn] [Zinc, zinc]
increase in cytoplasmic Ca2+ (change in fluorescence ratio) (IB3-1 cells [4]; ECaT Ringer's, plate reader): long lasting increase in cytoplasmic Ca^2+

Nc1ccn([C@H]2C[C@H](O)[C@@H](COP(=O)(O)OP(=O)(O)OP(=O)(O)OP(=O)(O)OC[C@H]3O[C@@H](n4ccc(=O)[nH]c4=O)[C@H](O)[C@@H]3O)O2)c(=O)n1 [Denufosol, denufosol]
improvement in lung function [5]: 2.5%

O=c1c(-c2ccc(O)cc2)coc2cc(O)cc(O)c12 [genistein]
effect of preincubation on the spiperone-induced Ca2+ increase (IB3-1 cells [1]): partially blocked

O=C(O)c1cccnc1Nc1cccc(C(F)(F)F)c1 [NFA, niflumic acid]
effect of channel blocker on spiperone-induced sustained Cl- release (Calu-3 cells [2]): totally blocked | effect of channel blocker on spiperone-induced transient Cl- (Calu-3 cells [2]): reduced | effect of CaCC blocker on spiperone's effect on Cl- secretion (CFBE41o- cells [3]): reduced significantly

O=C(CCCN1CCC2(CC1)C(=O)NCN2c1ccccc1)c1ccc(F)cc1 [spiperone]
change in Ca2+ (Calu-3 cells [6]): transient increase in Ca^2+ | nasal potential difference / Cl- conductance [7]: did not induce any further hyperpolarization | change in cytoplasmic Ca2+ (IB3-1 cells [1]; Ca2+-free ECaT Ringer's): only a transient increase in cytoplasmic Ca^2+ | change in cytoplasmic Ca2+ (IB3-1 cells [1]; Ca2+-free normal Ringer's): only a transient increase in Ca^2+ | change in cytoplasmic Ca2+ (IB3-1 cells [1]; ECaT Ringer's): sustained increase in Ca^2+ | cytosolic Ca2+ response to thapsigargin after spiperone (IB3-1 cells [1]; cells treated with spiperone before thapsigargin, normal Ringers): no increase in cytosolic Ca^2+ | change in cytoplasmic Ca2+ (IB3-1 cells [1]; normal Ringer's): only a transient increase in Ca^2+ | Cl- secretion (Calu-3 cells [2]; 20 μM, monolayers): stimulated Cl^− secretion | amount of spiperone required to induce Cl- secretion (Calu-3 cells [2]; "our study", airway epithelial cells): at least 1 μmol | Cl- current (short circuit current) (Calu-3 cells [2]): a transient and then a sustained Cl^− current | nasal potential difference / Cl- conductance ([8]; 1 μM in Zero Cl- baseline Ringer's, after amiloride, nasal perfusion): hyperpolarized the mouse nasal potential significantly | nasal potential difference ([8]; 1 μM, after 19 min of sustained perfusion): remained significantly hyperpolarized | nasal potential difference / Cl- conductance ([8]; subsequent increase to 20 μM): did not boost Cl^− conductance | affinity for the 5-HT2 receptor (5-HT2 receptor): high affinity | Cl- secretion (CFBE41o- cells [3]; 20 μM, monolayers): stimulated Cl^− secretion | Cl- secretion (short circuit current) (CFBE41o- cells [3]): only a transient Cl^− secretion | Cl- transit on spiperone applied after thapsigargin (CFBE41o- cells [3]; subsequent to thapsigargin): failed to stimulate any additional Cl^− transit | spiperone concentrations at which the Ca2+ stimulation is reduced (IB3-1 cells [4]; higher concentrations, inhibition): > 50 µM | spiperone concentrations that stimulate cytoplasmic Ca2+ (IB3-1 cells [4]; lower concentrations, activation): less than 50 μM | affinity for the dopamine D2 receptor (dopamine D2 receptor; antagonists): high affinity | change in Ca2+ (CFBE41o- cells [9]): transient increase in Ca^2+ | change in Ca2+ (NHBE): transient increase in Ca^2+

NCCOB(c1ccccc1)c1ccccc1 [2APB]
effect on the spiperone induced Ca2+ release from ER (IB3-1 cells [1]; 100 μM, 30 minutes incubation, data not shown): totally blocked
